Source: patent US8329645B2, “Polymyxin derivatives and uses thereof” (priority 2008, dated 2012)

Assays:
[1] = system: A. baumannii F264; assay: E-test MIC of antibiotics on Mueller Hinton agar containing increasing concentrations of NAB739; format: cell-based, Acinetobacter baumannii
[2] = system: K. pneumoniae ATCC13883; settings: K. pneumoniae ATCC13883
Summary of the method: (§1)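 Testing used commercial E-strips as directed by their maker. The minimum inhibitory concentration was determined from each strip.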

[3] = system: E. coli ATCC25922; settings: E. coli ATCC25922
Summary of the method: as §1

[4] = system: C. freundii ATCC8090; assay: E-test MIC with or without NAB7061 (4 μg/ml), Mueller-Hinton agar; format: cell-based, Citrobacter freundii
Procedure: (§2) MICs were determined by using E-strips (Biodisk Ltd., Solna, Sweden) according to the manufacturer's instructions.
(§3) The strains originated from ATCC (11 strains), CCUG (11 strains), and NCTC (The National Collection of Type Cultures, Colindale, U.K.; 2 strains). Eight strains (the F-strains) were purchased from Mobidiag Ltd., Helsinki, Finland.

[5] = system: three strains of A. baumannii; assay: E-test sensitization by NAB7061, summary over strains; format: cell-based; settings: Acinetobacter baumannii, read-out: resulting MIC values in the presence of NAB7061 (4 μg/ml)
Text: as §3

[6] = system: K. pneumoniae CCUG45421; assay: E-test MIC with or without NAB7061 (4 μg/ml), Mueller-Hinton agar; format: cell-based, Klebsiella pneumoniae
Procedure: as §2, §3

[7] = system: K. pneumoniae F136; assay: as above; format: cell-based, Klebsiella pneumoniae
Procedure: as §2, §3

[8] = system: K. pneumoniae F145; assay: as above; format: cell-based, Klebsiella pneumoniae
Procedure: as §2, §3

[9] = system: K. pneumoniae F144; assay: as above; format: cell-based, Klebsiella pneumoniae
Procedure: as §2, §3

[10] = system: E. coli NCTC13353; assay: as above; format: cell-based, Escherichia coli
Summary of the method: as §1

[11] = system: E. coli CCUG41432; assay: as above; format: cell-based, Escherichia coli
Summary of the method: as §1

[12] = system: E. coli CCUG41421; assay: as above; format: cell-based, Escherichia coli
Summary of the method: as §1

[13] = system: E. coli CCUG41422; assay: as above; format: cell-based, Escherichia coli
Summary of the method: as §1

[14] = system: E. coli CCUG41424; assay: as above; format: cell-based, Escherichia coli
Summary of the method: as §1

[15] = system: E. coli CCUG41429; assay: as above; format: cell-based, Escherichia coli
Summary of the method: as §1

[16] = system: E. coli IH3080; assay: as above; format: cell-based, Escherichia coli
Summary of the method: as §1

[17] = system: E. coli CCUG41427; assay: as above; format: cell-based, Escherichia coli
Summary of the method: as §1

[18] = system: E. coli CCUG41425; assay: as above; format: cell-based, Escherichia coli
Summary of the method: as §1

[19] = system: E. coli NCTC13351; assay: as above; format: cell-based, Escherichia coli
Summary of the method: as §1

[20] = system: S. marcescens ATCC8100; assay: as above; format: cell-based, Serratia marcescens
Procedure: as §2, §3

[21] = system: P. mirabilis ATCC29906; assay: as above; format: cell-based, Proteus mirabilis
Procedure: as §2, §3

[22] = system: E. cloacae F230; assay: as above; format: cell-based, Enterobacter cloacae
Summary of the method: as §1

[23] = system: E. cloacae F232; assay: as above; format: cell-based, Enterobacter cloacae
Summary of the method: as §1

[24] = system: E. cloacae ATCC23355; assay: as above; format: cell-based, Enterobacter cloacae
Summary of the method: as §1

[25] = system: E. cloacae CCUG52947; assay: as above; format: cell-based, Enterobacter cloacae
Summary of the method: as §1

[26] = system: K. oxytoca CCUG51683; assay: as above; format: cell-based, Klebsiella oxytoca
Procedure: as §2, §3

[27] = system: K. oxytoca ATCC13182; assay: as above; format: cell-based, Klebsiella oxytoca
Procedure: as §2, §3

[28] = system: A. baumannii ATCC19606; assay: E-test MIC of antibiotics on Mueller Hinton agar containing increasing concentrations of NAB739; format: cell-based, Acinetobacter baumannii
[29] = system: Ac. baumannii ATCC19606; assay: E-test MIC with or without NAB7061 (4 μg/ml), Mueller-Hinton agar; format: cell-based, Acinetobacter baumannii; settings: Ac. baumannii ATCC19606
Procedure: as §2, §3

[30] = system: Ac. baumannii F264; assay: as above; format: cell-based, Acinetobacter baumannii; settings: Ac. baumannii F264
Procedure: as §2, §3

[31] = system: Ac. baumannii F263; assay: as above; format: cell-based, Acinetobacter baumannii; settings: Ac. baumannii F263
Procedure: as §2, §3

[32] = system: P. aeruginosa ATCC 27853; assay: E-test MIC of antibiotics on Mueller Hinton agar containing increasing concentrations of NAB739; format: cell-based, Pseudomonas aeruginosa
[33] = system: S. maltophilia ATCC17444; assay: E-test MIC with or without NAB7061 (4 μg/ml), Mueller-Hinton agar; format: cell-based
Procedure: as §2, §3

[34] = system: P. vulgaris ATCC13315; assay: as above; format: cell-based
Procedure: as §2, §3

[35] = system: P. aeruginosa ATCC27853; assay: as above; format: cell-based, Pseudomonas aeruginosa
Procedure: as §2, §3

[36] = system: P. aeruginosa CCUG51971; assay: as above; format: cell-based, Pseudomonas aeruginosa
Procedure: as §2, §3

CC[C@H]1OC(=O)[C@H](C)[C@@H](O[C@H]2C[C@@](C)(OC)[C@@H](O)[C@H](C)O2)[C@H](C)[C@@H](O[C@@H]2O[C@H](C)C[C@H](N(C)C)[C@H]2O)[C@](C)(OC)C[C@@H](C)C(=O)[C@H](C)[C@@H](O)[C@]1(C)O [Clarithromycin]
MIC of antibiotic in the presence of NAB739 ([1]; NAB 739 0 μg/ml): 6 µg/mL
MIC of antibiotic in the presence of NAB739 ([1]; NAB 739 0.5 μg/ml): 0.5 µg/mL
MIC of antibiotic in the presence of NAB739 ([1]; NAB 739 1 μg/ml): 0.125 µg/mL
MIC of antibiotic in the presence of 4 μg/ml of NAB 7061 [2]: 0.19 µg/mL
MIC of antibiotic in the presence of 4 μg/ml of NAB 7061 [3]: 0.094 to 0.125 µg/mL
MIC of antibiotic in the presence of 4 μg/ml of NAB 7061 [4]: 0.125 µg/mL
MIC [5]: ≤ 0.5 µg/mL
MIC of antibiotic in the presence of 4 μg/ml of NAB 7061 [6]: 24 µg/mL
MIC of antibiotic in the presence of 4 μg/ml of NAB 7061 [7]: 2 µg/mL
MIC of antibiotic in the presence of 4 μg/ml of NAB 7061 [8]: 0.25 µg/mL
MIC of antibiotic in the presence of 4 μg/ml of NAB 7061 [9]: 0.75 µg/mL
MIC of antibiotic in the presence of 4 μg/ml of NAB 7061 [10]: 1 µg/mL
MIC of antibiotic in the presence of 4 μg/ml of NAB 7061 [11]: 0.064 µg/mL
MIC of antibiotic in the presence of 4 μg/ml of NAB 7061 [12]: 0.125 µg/mL
MIC of antibiotic in the presence of 4 μg/ml of NAB 7061 [13]: 0.25 µg/mL
MIC of antibiotic in the presence of 4 μg/ml of NAB 7061 [14]: 0.125 µg/mL
MIC of antibiotic in the presence of 4 μg/ml of NAB 7061 [15]: 0.064 µg/mL
MIC of antibiotic in the presence of 4 μg/ml of NAB 7061 [16]: 0.047 to 0.064 µg/mL
MIC of antibiotic in the presence of 4 μg/ml of NAB 7061 [17]: 0.064 µg/mL
MIC of antibiotic in the presence of 4 μg/ml of NAB 7061 [18]: 0.047 µg/mL
MIC of antibiotic in the presence of 4 μg/ml of NAB 7061 [19]: 0.032 µg/mL
MIC of antibiotic in the presence of 4 μg/ml of NAB 7061 [20]: 96 µg/mL
MIC of antibiotic in the presence of 4 μg/ml of NAB 7061 [21]: 24 µg/mL
MIC of antibiotic in the presence of 4 μg/ml of NAB 7061 [22]: 0.047 µg/mL
MIC of antibiotic in the presence of 4 μg/ml of NAB 7061 [23]: 0.094 µg/mL
MIC of antibiotic in the presence of 4 μg/ml of NAB 7061 [24]: 0.25 to 0.75 µg/mL
MIC of antibiotic in the presence of 4 μg/ml of NAB 7061 [25]: 0.38 µg/mL
MIC of antibiotic in the presence of 4 μg/ml of NAB 7061 [26]: 0.19 µg/mL
MIC of antibiotic in the presence of 4 μg/ml of NAB 7061 [27]: 0.25 µg/mL
MIC of antibiotic in the presence of NAB739 ([28]; NAB 739 0 μg/ml): 8 µg/mL
MIC of antibiotic in the presence of NAB739 ([28]; NAB 739 0.5 μg/ml): 0.5 µg/mL
MIC of antibiotic in the presence of NAB739 ([28]; NAB 739 1 μg/ml): 0.094 µg/mL
MIC of antibiotic in the presence of 4 μg/ml of NAB 7061 [29]: 0.5 µg/mL
MIC of antibiotic in the presence of 4 μg/ml of NAB 7061 [30]: 0.25 µg/mL
MIC of antibiotic in the presence of 4 μg/ml of NAB 7061 [31]: 0.38 µg/mL
MIC of antibiotic in the presence of NAB739 ([32]; NAB 739 0 μg/ml): 48 µg/mL
MIC of antibiotic in the presence of NAB739 ([32]; NAB 739 0.5 μg/ml): 16 µg/mL
MIC of antibiotic in the presence of NAB739 ([32]; NAB 739 1 μg/ml): 12 µg/mL
MIC of antibiotic in the presence of NAB739 ([32]; NAB 739 2 μg/ml): 3 µg/mL
MIC of antibiotic in the presence of NAB739 ([32]; NAB 739 […]): 32 µg/mL
MIC of antibiotic in the presence of 4 μg/ml of NAB 7061 [33]: 64 µg/mL
MIC of antibiotic in the presence of 4 μg/ml of NAB 7061 [34]: 24 µg/mL
MIC of antibiotic in the presence of 4 μg/ml of NAB 7061 [35]: 32 µg/mL
MIC of antibiotic in the presence of 4 μg/ml of NAB 7061 [36]: 64 µg/mL
